The values that follow are results of earlier work, collected in patent EP0134290A1, “Constant release rate solid dosage theophyllineformulation” (VEREX LABORATORIES, INC., priority 1983, dated 1985).

For the data set the following is noted: similar dose of regular theophylline; published; spread +- 2.1.

Consider `Cn1c(=O)c2[nH]cnc2n(C)c1=O` [regular theophylline, theophylline], for which the excretion half life is 9.0 h.
